Test results taken from PMC8069214, “Synthesis, Biological Evaluation, and Molecular Modeling of Aza-Crown Ethers” (Molecules, 2021).

Assays:
human neutrophils [1] = assay: PMA-induced ROS production (L-012 chemiluminescence); format: cell-based; conditions: Neutrophil, 200 nM PMA, N.A. = no activity at < 50 µM
Source text: To evaluate if the crown ethers could also disrupt GPCR-independent functional activity, we evaluated the effects of these compounds on phorbol 12-myristate 13-acetate (PMA)-stimulated reactive oxygen species (ROS) production. […] A representative concentration-dependent response for the inhibition of PMA-stimulated neutrophil ROS production by compound 15 is shown in Figure 2B. Since ROS production in neutrophils also requires increased [Ca^2+]i, the results again confirm that the impact of these compounds on Ca^2+ flux kinetics can alter neutrophil function.
ROS production was determined by monitoring L-012-enhanced chemiluminescence, which represents a sensitive and reliable method for detecting superoxide anion (O2^−.) production. Human neutrophils were resuspended at 2 × 10^5 cells/mL in HBSS^+ supplemented with 40 µM L-012. Cells (100 µL) were aliquoted into wells of 96-well flat-bottomed microtiter plates containing test compounds at different concentrations (final DMSO concentration of 1%). Cells were preincubated for 10 min, and 200 nM PMA was added to each well to stimulate ROS production. Luminescence was monitored for 120 min (2-min intervals) at 37 °C using a Fluroscan Ascent FL microtiter plate reader (Thermo Electron, Waltham, MA, USA). The curve of light intensity (in relative luminescence units) was plotted against time, and the area under the curve was calculated as total luminescence. The compound concentration that inhibited ROS production by 50% of the PMA-induced response (positive control) was determined by graphing the percentage inhibition of ROS production versus the logarithm of concentration of test sample (IC50). Each curve was determined using five to seven concentrations.

human neutrophils [2] = assay: Inhibition of fMLF-induced [Ca2+]i flux in human neutrophils; format: cell-based; conditions: Neutrophil, 10 min preincubation, 5 nM fMLF, N.A. = no activity at < 50 µM, read-out: FPR1/FPR2 Agonist-Induced Δ[Ca^2+]i Neutrophils IC50
Experimental: Since these compounds elevated neutrophil [Ca^2+]i, and cytosolic Ca^2+ flux is a key component of neutrophil activation, we evaluated if they could alter neutrophil activation by FPR1 or FPR2 agonists. Neutrophils and FPR-transfected HL60 cells were preincubated for 10 min with crown ether compounds, and [Ca^2+]i flux was stimulated with either an FPR1 agonist (fMLF for human neutrophils and FPR1-HL60 cells) or an FPR2 agonist (WKYMVM for FPR2-HL60 cells).
Changes in neutrophil intracellular Ca^2+ concentrations ([Ca^2+]i) were measured with a FlexStation 3 scanning fluorometer (Molecular Devices, Sunnyvale, CA, USA). Briefly, human neutrophils were suspended in HBSS^−, loaded with Fluo-4AM at a final concentration of 1.25 μg/mL, and incubated for 30 min in the dark at 37 °C. After dye loading, the cells were washed with HBSS^−, resuspended in HBSS^+, separated into aliquots, and loaded into the wells of flat-bottom, half-area well black microtiter plates (2 × 10^5 cells/well). To assess the direct effects of test compounds on Ca^2+ flux, the compounds were added to the wells (final concentration of DMSO was 1%), and changes in fluorescence were monitored (λex = 485 nm, λem = 538 nm) every 5 s for 240 s at room temperature after addition of the test compound. To evaluate inhibitory effects of the compounds on FPR1/FPR2-dependent Ca^2+ flux, the compounds were added to the wells (final concentration of DMSO was 1%) with cells (human neutrophils or FPR1/FPR2 HL60 cells). The samples were preincubated for 10 min, followed by addition of 5 nM fMLF (for human neutrophils or FPR1-HL60 cells) or 5 nM WKYMVM (for FPR2-HL60 cells). The maximum change in fluorescence, expressed in arbitrary units over baseline, was used to determine the agonist response. Responses were normalized to the response induced by 5 nM fMLF or 5 nM WKYMVM, which were assigned as 100%. Curve fitting (at least five or six points) and calculation of median effective concentration values (EC50 or IC50) were performed by nonlinear regression analysis of the dose–response curves generated using Prism 7 (GraphPad Software, Inc., San Diego, CA, USA). Efficacy was determined by comparing individual responses activated by the test compounds to that induced by a positive control (5 nM fMLF), which was assigned a value of 100%.

SMILES	IC50 (human neutrophils [1])	IC50 (human neutrophils [2])	melting point
O=C(N1CCOCCOCCN(C(=O)C23CC4CC(CC(C4)C2)C3)CCOCC1)C12CC3CC(CC(C3)C1)C2 [Compound 13, N,N’-bis[1-oxo-1-(1-adamantyl)methyl]-4,10-diaza-15-crown-5]	25.9 ± 2.7 µM	7.4 ± 1.3 µM	–
O=C(N1CCOCCOCCOCCN(C(=O)C23CC4CC(CC(C4)C2)C3)CCOCC1)C12CC3CC(CC(C3)C1)C2 [Compound 14, N,N’-bis[1-oxo-1-(1-adamantyl)methyl]-4,10-diaza-18-crown-6]	21.9 ± 2.2 µM	3.5 ± 0.4 µM	–
O=C(CC12CC3CC(CC(C3)C1)C2)N1CCOCCOCCN(C(=O)CC23CC4CC(CC(C4)C2)C3)CCOCC1 [Compound 15, N,N’-bis[2-(1-adamantyl)acetyl]-4,10-diaza-15-crown-5]	4.1 ± 0.1 µM	4.1 ± 0.6 µM	72 to 76 °C
O=C(CC12CC3CC(CC(C3)C1)C2)N1CCOCCOCCN(C(=O)CC23CC4CC(CC(C4)C2)C3)CCOCCOCC1 [Compound 17, N,N’-bis[2-(1-adamantyl)acetyl]-4,13-diaza-18-crown-6]	8.2 ± 0.1 µM	1.5 ± 0.4 µM	–
